Laboratory results reported in patent US12167999B2, “Anti-inflammatory and mydriatic intracameral solutions for inhibition of postoperative ocular inflammatory conditions” (Rayner Intraocular Lenses Limited, priority 2014, dated 2024).
Like-named read-outs stand apart in the source and are kept apart here.

Key:
COX-2 [1] = target: T1, COX-2 (Homo sapiens, UniProt P35354); details: cited from earlier work
T1 sequence (P35354 18-604): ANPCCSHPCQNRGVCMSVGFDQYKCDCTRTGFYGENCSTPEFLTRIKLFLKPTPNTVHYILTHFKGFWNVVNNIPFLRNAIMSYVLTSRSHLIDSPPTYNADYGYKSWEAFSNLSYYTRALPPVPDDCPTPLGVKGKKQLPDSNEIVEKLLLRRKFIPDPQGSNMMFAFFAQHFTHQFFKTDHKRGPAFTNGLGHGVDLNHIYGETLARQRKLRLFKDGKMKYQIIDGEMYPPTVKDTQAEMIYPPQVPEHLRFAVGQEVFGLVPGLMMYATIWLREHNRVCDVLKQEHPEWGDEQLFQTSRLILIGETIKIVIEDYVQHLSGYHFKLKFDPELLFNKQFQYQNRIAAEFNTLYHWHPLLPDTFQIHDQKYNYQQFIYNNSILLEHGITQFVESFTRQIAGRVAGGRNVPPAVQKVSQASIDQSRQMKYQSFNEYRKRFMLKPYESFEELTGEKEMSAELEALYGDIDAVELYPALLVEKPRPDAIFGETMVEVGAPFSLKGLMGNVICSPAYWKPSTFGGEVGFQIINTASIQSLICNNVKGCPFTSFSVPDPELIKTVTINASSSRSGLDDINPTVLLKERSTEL

COX-1 [2] = test: Estimated percent inhibition of COX-1 from tissue ketorolac concentrations in dogs; type: in vivo, female beagles; details: for estimated COX-1 inhibition: retina
Protocol: (§1) IOL replacement by phacoemulsification was performed on 20 female beagles. During the procedure, OMS302 was administered in BSS solution via irrigation and intracameral injection immediately post-procedure. The target dose level of ketorolac was 5.71 mg/eye, and the target dose volume of OMS302 diluted in BSS solution was […] per eye. Four animals per time point were sacrificed at 0, 2, 6, 8, and 10 hours post-procedure. Samples of blood and aqueous humor were collected. Enucleated eyes were frozen and dissected for collection of retina, retinal pigmented epithelium-choroid, cornea, iris-ciliary body, vitreous humor, sclera, and lens capsule. Tissue concentrations of ketorolac were quantitated using a liquid chromatography/mass spectrometry (LCMS) method. Using published IC50 values for cyclooxygenase (COX) inhibition by ketorolac (Waterbury, et. al., Curr Med Res Opin 22(6):1133-40 (2006)), estimates of percent inhibition were derived for each time point.

[3] = human, in vivo
Source text: Patients undergoing cataract extraction and lens replacement (CELR) were eligible. Written informed consent was obtained from 14 subjects, each of whom received topical ophthalmic ketorolac according to the surgeon's usual practice, beginning one day preoperatively. Immediately prior to the initial surgical incision, the surgeon withdrew a 100-μL sample of aqueous humor from the operative eye with a 30-gauge tuberculin syringe. At the conclusion of CELR prior to final re-inflation of the anterior chamber and wound closure, the surgeon withdrew another 100-μL sample from the anterior chamber. The ketorolac concentrations of the intracameral fluid samples were analyzed by an analytical laboratory.

PGE2 production = details: ketorolac 0.45% compared to nepafenac 0.1% and bromfenac 0.09; cited from earlier work
COX-1 [4] = target: COX-1 (Homo sapiens, UniProt P23219); details: cited from earlier work
COX-2 [5] = test: Estimated percent inhibition of COX-2 from tissue ketorolac concentrations in dogs; type: in vivo, female beagles; details: for estimated COX-2 inhibition: retina
Protocol: IOL replacement by phacoemulsification was performed on 20 female beagles. During the procedure, OMS302 was administered in BSS solution via irrigation and intracameral injection immediately post-procedure. […] Four animals per time point were sacrificed at 0, 2, 6, 8, and 10 hours post-procedure. Samples of blood and aqueous humor were collected. Enucleated eyes were frozen and dissected for collection of retina, retinal pigmented epithelium-choroid, cornea, iris-ciliary body, vitreous humor, sclera, and lens capsule. Tissue concentrations of ketorolac were quantitated using a liquid chromatography/mass spectrometry (LCMS) method.

[6] = Ocular tissue distribution of ketorolac after intracameral OMS302 during IOL replacement in dogs; type: in vivo, female beagles
Protocol: This example describes the results of an in vivo study in dogs to determine the concentrations of ketorolac in the retina and other ocular tissues following the intracameral administration of phenylephrine 1% and ketorolac 0.3% injection formulated as described in Table 1 (OMS302) during IOL replacement in dogs.
as §1

[7] = used for the estimate of percent inhibition
[8] = aqueous humor, vitreous humor and RPE-choroid, t=8 hours
[9] = for at least 8 hours following drug administration
[10] = for at least 10 hours following drug administration

Chain of COX-1 (Homo sapiens, UniProt P23219) (P23219 24-599): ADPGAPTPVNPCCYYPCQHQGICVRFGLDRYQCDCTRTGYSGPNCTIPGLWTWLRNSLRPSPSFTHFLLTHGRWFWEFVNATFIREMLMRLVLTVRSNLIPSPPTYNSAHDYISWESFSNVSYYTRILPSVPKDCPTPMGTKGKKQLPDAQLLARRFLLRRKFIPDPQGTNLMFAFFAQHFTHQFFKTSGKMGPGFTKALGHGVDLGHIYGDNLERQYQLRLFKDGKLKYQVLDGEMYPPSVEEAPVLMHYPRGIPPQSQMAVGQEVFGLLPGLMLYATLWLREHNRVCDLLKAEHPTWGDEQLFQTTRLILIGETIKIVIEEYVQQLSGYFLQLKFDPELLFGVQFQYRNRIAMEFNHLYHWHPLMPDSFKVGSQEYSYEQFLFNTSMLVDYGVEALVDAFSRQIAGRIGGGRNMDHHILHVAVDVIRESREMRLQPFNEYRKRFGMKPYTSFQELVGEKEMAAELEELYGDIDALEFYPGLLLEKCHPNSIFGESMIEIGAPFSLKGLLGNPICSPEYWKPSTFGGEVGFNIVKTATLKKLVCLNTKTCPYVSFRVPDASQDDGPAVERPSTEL

Compound: O=C(c1ccccc1)c1ccc2n1CCC2C(=O)O (racemic) [ketorolac, (+/−)-5-Benzoyl-2,3-dihydro-1H-pyrrolizine-1-carboxylic acid: 2-amino-2(hydroxymethyl)-1,3-propanediol (1:1)]
- IC50 (COX-2 [1]; published value): 0.12 µM
- Ki (COX-2 [1]; [7]): 0.06 µM
- inhibition of COX-1 (COX-1 [2]; [8]): > 90%
- inhibition of COX-1 in ocular tissues (COX-1 [2]; [9]): at least 90%
- inhibition of COX-1 in ocular tissues (COX-1 [2]; [10]): at least 85%
- estimated COX-1 inhibition (COX-1 [2]; t=0): 99.3%
- estimated COX-1 inhibition (COX-1 [2]; t=8 hours): 98.4%
- mean percent inhibition of COX-1 (COX-1 [2]; retinal tissue, t=10 hours, standard deviation 0.36%): 97.74%
- subjects with an undetectable concentration of ketorolac in the aqueous humor at the end of the surgical procedure [3]: 66.7%
- inhibition of PGE2 (PGE2 production): greatest inhibition
- IC50 (COX-1 [4]; published value): 0.02 µM
- Ki (COX-1 [4]; [7]): 0.01 µM
- inhibition of COX-2 (COX-2 [5]; [8]): > 90%
- inhibition of COX-2 in ocular tissues (COX-2 [5]; [9]): at least 90%
- inhibition of COX-2 in ocular tissues (COX-2 [5]; [10]): at least 85%
- estimated COX-2 inhibition (COX-2 [5]; t=0): 96.0%
- estimated COX-2 inhibition (COX-2 [5]; t=8 hours): 91.1%
- concentration at 0 h ([6]; female, beagle, dog, plasma, 5.71 mg/eye, t=0, read-out: mean plasma level of ketorolac): 4.73 ± 1.46 ng/mL
- concentration at 8 h ([6]; female, beagle, dog, retina, 5.71 mg/eye, eight hours post-procedure, intracameral OMS302 in BSS): 164 ± 39 ng/g
- concentration at 0 h ([6]; female, beagle, dog, retina, 5.71 mg/eye, immediately following the end of IOL replacement (t=0), intracameral OMS302 in BSS, read-out: Ketorolac concentration in the retina): 1400 ± 1000 ng/g
- half-life ([6]; female, beagle, dog, retina, 5.71 mg/eye, ketorolac after intracameral OMS302, read-out: retinal half-life (converted)): ~3.8 h
- mean plasma level of ketorolac ([6]; t≥2 hours): undetectable
